The source of these data is US11045453B1 (priority 2020, dated 2021).

“Also recorded” adds a separate entry of the source.

The test system of experiment [1] is SARS-CoV-2 clinical isolate (2019-nCoV/USA-WA1/2020). It is filed as cell-based.
For experiment [2], the system named is VSVpp+SARS-2-S Δ18 in Vero-E6 cells. In kind it is cell-based, African green monkey.
Experiment [3] concerns the target Rabbit uPA (Oryctolagus cuniculus, UniProt Q8MHY7). Description: Ki determination, chromogenic substrate cleavage. It is filed as biochemical. As to conditions: read-out: Ki Mean ± SD (n).
Experiment [4] deals with Human Kallikrein-1 (Homo sapiens, UniProt P06870). Description: Ki determination, chromogenic substrate cleavage. Conditions: read-out: Ki Mean ± SD (n). In kind it is biochemical.
In experiment [5] the target is Human uPA (Homo sapiens, UniProt P00749). Description: Ki determination, chromogenic substrate cleavage. As to conditions: read-out: Ki Mean ± SD (n). In kind it is biochemical.
Experiment [6] addresses Human Enterokinase (Homo sapiens, UniProt P98073). Description: Ki determination, chromogenic substrate cleavage. It is filed as biochemical. As to conditions: read-out: Ki Mean ± SD (n).
In experiment [7] the target is T1, Human FXIa (Homo sapiens, UniProt P03951).
T1 construct: Human FXIa
Description: Ki determination, chromogenic substrate cleavage. It is filed as biochemical. Conditions: read-out: Ki Mean ± SD (n).

In experiment [8] the target is Human uPA (H99A in medium) (Homo sapiens, UniProt P00749, H272A). Description: Ki determination, chromogenic substrate cleavage. In kind it is biochemical. Conditions: read-out: Ki Mean ± SD (n).
Experiment [9] has as its target T2, Human Fxa (Homo sapiens, UniProt P00742).
T2 construct: Human Fxa
Description: Ki determination, chromogenic substrate cleavage. It is filed as biochemical. As to conditions: read-out: Ki Mean ± SD (n).

The target in experiment [10] is T3, Human TMPRSS2 (Homo sapiens, UniProt O15393).
T3 construct: purchased MyBioSource MBS1193731; host or cells: mammalian expression system
Description: Ki determination, chromogenic substrate cleavage. It is filed as biochemical. As to conditions: read-out: Ki Mean ± SD (n). The protocol: The Ki was determined to be 2.9±0.04 (3) μM.

The subject of experiment [11] is VSVpp+SARS-2-S Δ18 in Calu-3 cells. In kind it is cell-based, human.
The target in experiment [12] is Human DESC-1 (Homo sapiens, UniProt Q9UL52). Description: Ki determination, chromogenic substrate cleavage. Conditions: read-out: Ki Mean ± SD (n). It is filed as biochemical.
Experiment [13] concerns VSV-G pseudotypes in Calu-3 cells. It is filed as cell-based, human.
The target in experiment [14] is Human Kallikrein-8 (Homo sapiens, UniProt O60259). Description: Ki determination, chromogenic substrate cleavage. It is filed as biochemical. Conditions: read-out: Ki Mean ± SD (n).
Experiment [15] has as its target T4, Human two-chain tPA (Homo sapiens, UniProt P00750).
T4 construct: Human two-chain tPA
Description: Ki determination, chromogenic substrate cleavage. In kind it is biochemical. As to conditions: read-out: Ki Mean ± SD (n).

The target of experiment [16] is Human Matriptase-2 (Homo sapiens, UniProt Q8IU80). Description: Ki determination, chromogenic substrate cleavage. It is filed as biochemical. Conditions: read-out: Ki Mean ± SD (n).
The target in experiment [17] is Human Prostasin (Homo sapiens, UniProt Q16651). Description: Protease inhibition (IC50), chromogenic substrate cleavage. In kind it is biochemical. As to conditions: listed as marked (IC50) in the Ki column, read-out: IC50 Mean ± SD (n).
Experiment [18] addresses Human Trypsin-3 (Homo sapiens, UniProt P35030). Description: biochemical.
Experiment [19] concerns the target Human Trypsin-6 (Homo sapiens, UniProt Q8NHM4). Description: Ki determination, chromogenic substrate cleavage. In kind it is biochemical. Conditions: read-out: Ki Mean ± SD (n).
Experiment [20] has as its target Human HAT (Homo sapiens, UniProt O60235). Description: Ki determination, chromogenic substrate cleavage. It is filed as biochemical. As to conditions: read-out: Ki Mean ± SD (n).
Experiment [21] addresses Bovine Cationic Trypsin-1 (Bos taurus, UniProt P00760). Description: Ki determination, chromogenic substrate cleavage. In kind it is biochemical. As to conditions: read-out: Ki Mean ± SD (n).
For experiment [22], the target named is T5, Human FIXa (Homo sapiens, UniProt P00740).
T5 construct: Human FIXa
Description: Ki determination, chromogenic substrate cleavage. Conditions: read-out: Ki Mean ± SD (n). In kind it is biochemical.

In experiment [23] the target is Human PRSS27 (Homo sapiens, UniProt Q9BQR3). Description: Protease inhibition (IC50), chromogenic substrate cleavage. In kind it is biochemical. As to conditions: listed as marked (IC50) in the Ki column, read-out: IC50 Mean ± SD (n).
For experiment [24], the target named is Human Kallikrein-11 (Homo sapiens, UniProt Q9UBX7). Description: Ki determination, chromogenic substrate cleavage. It is filed as biochemical. As to conditions: read-out: Ki Mean ± SD (n).
Experiment [25] addresses Mouse uPA (Mus musculus, UniProt P06869). Description: Ki determination, chromogenic substrate cleavage. In kind it is biochemical. Conditions: read-out: Ki Mean ± SD (n).
Experiment [26] addresses Human Activated Protein C (Homo sapiens, UniProt P04070). Description: Ki determination, chromogenic substrate cleavage. It is filed as biochemical. As to conditions: read-out: Ki Mean ± SD (n).
The target in experiment [27] is Human Spinesin (Homo sapiens, UniProt Q9H3S3). Description: Ki determination, chromogenic substrate cleavage. In kind it is biochemical. Conditions: read-out: Ki Mean ± SD (n).
For experiment [28], the target named is T6, Human TMPRSS11(A) (Homo sapiens, UniProt Q6ZMR5).
T6 construct: purchased MyBioSource MBS1345824; host or cells: mammalian expression system
Description: Ki determination, chromogenic substrate cleavage. In kind it is biochemical. Conditions: read-out: Ki Mean ± SD (n). The protocol:
The Ki was determined to be 0.39±0.01 (3) μM.

The target in experiment [29] is Human C1s (Homo sapiens, UniProt P09871). Description: Ki determination, chromogenic substrate cleavage. In kind it is biochemical. As to conditions: read-out: Ki Mean ± SD (n).
In experiment [30] the target is T7, Human Plasmin (Homo sapiens, UniProt P00747).
T7 construct: Human Plasmin
Description: Ki determination, chromogenic substrate cleavage. It is filed as biochemical. Conditions: read-out: Ki Mean ± SD (n).

In experiment [31] the target is T8, Human Thrombin (Homo sapiens, UniProt P00734).
T8 construct: Human Thrombin
Description: Ki determination, chromogenic substrate cleavage. It is filed as biochemical. As to conditions: read-out: Ki Mean ± SD (n).

Experiment [32] concerns the target Human uPA (Q192A in medium) (Homo sapiens, UniProt P00749, Q373A). Description: Ki determination, chromogenic substrate cleavage. It is filed as biochemical. Conditions: read-out: Ki Mean ± SD (n).
Experiment [33] addresses Human Trypsin-1 (Homo sapiens, UniProt P07477). Description: biochemical.
Experiment [34] has as its target Human Hepsin (Homo sapiens, UniProt P05981). Description: Ki determination, chromogenic substrate cleavage. It is filed as biochemical. Conditions: read-out: Ki Mean ± SD (n).
In experiment [35] the target is Rat uPA (Rattus norvegicus, UniProt P29598). Description: Ki determination, chromogenic substrate cleavage. It is filed as biochemical. Conditions: read-out: Ki Mean ± SD (n).
Experiment [36] concerns the target Human Plasma Kallikrein (Homo sapiens, UniProt P03952). Description: Ki determination, chromogenic substrate cleavage. It is filed as biochemical. Conditions: read-out: Ki Mean ± SD (n).
Experiment [37] deals with Human HGFA (Homo sapiens, UniProt Q04756). Description: Ki determination, chromogenic substrate cleavage. In kind it is biochemical. As to conditions: read-out: Ki Mean ± SD (n).
In experiment [38] the target is Human Trypsin-2 (Homo sapiens, UniProt P07478). Description: biochemical.
Experiment [39] deals with Human Granzyme A (Homo sapiens, UniProt P12544). Description: Ki determination, chromogenic substrate cleavage. In kind it is biochemical. As to conditions: read-out: Ki Mean ± SD (n).

As a reminder, the Ki is the dissociation constant of the complex between target and ligand, obtained from inhibition or displacement. What is called IC50 is the concentration that inhibits the measured activity by half.

Human Spinesin, sequence (Q9H3S3 whole entry): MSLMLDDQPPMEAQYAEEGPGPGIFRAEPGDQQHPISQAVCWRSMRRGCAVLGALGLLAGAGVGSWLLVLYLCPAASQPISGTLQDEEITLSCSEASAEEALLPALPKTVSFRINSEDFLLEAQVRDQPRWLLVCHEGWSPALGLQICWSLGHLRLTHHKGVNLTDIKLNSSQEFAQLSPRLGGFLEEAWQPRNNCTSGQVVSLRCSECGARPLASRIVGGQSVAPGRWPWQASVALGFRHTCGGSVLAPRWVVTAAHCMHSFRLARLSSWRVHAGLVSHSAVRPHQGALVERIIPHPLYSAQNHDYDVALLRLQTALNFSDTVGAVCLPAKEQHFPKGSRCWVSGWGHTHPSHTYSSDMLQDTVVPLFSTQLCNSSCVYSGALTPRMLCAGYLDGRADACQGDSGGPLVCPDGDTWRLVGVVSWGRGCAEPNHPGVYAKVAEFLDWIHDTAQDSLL
Human Kallikrein-11, sequence (Q9UBX7 54-282): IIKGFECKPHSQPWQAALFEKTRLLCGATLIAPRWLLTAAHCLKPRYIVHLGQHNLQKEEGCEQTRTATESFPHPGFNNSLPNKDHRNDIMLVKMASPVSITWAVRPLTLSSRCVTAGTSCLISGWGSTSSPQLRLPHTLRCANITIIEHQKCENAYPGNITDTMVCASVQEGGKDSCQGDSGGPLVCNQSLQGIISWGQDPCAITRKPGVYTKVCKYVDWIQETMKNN
T2 sequence (P00742 235-488 limits assumed): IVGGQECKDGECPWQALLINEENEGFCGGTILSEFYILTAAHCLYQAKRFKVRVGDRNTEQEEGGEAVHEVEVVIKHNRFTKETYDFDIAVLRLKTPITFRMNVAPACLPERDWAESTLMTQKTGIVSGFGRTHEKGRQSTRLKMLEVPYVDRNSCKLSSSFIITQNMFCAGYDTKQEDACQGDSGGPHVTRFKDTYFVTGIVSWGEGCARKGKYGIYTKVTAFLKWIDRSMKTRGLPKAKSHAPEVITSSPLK
T2 sequence (P00742 41-179 partner limits assumed): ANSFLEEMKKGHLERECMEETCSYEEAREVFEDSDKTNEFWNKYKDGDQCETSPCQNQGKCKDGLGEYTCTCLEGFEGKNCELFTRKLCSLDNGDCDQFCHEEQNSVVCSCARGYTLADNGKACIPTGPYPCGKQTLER
Human Trypsin-6, sequence (Q8NHM4 16-247): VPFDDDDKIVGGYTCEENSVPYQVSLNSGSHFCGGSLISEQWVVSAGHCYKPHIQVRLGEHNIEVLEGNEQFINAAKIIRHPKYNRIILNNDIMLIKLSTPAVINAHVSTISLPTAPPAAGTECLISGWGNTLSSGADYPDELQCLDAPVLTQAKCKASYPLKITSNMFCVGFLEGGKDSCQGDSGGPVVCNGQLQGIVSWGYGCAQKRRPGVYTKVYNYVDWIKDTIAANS
Bovine Cationic Trypsin-1, sequence (P00760 24-246): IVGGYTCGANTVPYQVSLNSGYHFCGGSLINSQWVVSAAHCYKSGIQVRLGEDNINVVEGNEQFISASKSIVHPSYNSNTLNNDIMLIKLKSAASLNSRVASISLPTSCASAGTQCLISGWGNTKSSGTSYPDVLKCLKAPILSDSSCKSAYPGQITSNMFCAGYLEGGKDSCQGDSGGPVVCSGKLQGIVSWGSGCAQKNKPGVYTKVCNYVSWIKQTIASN
Human Trypsin-2, sequence (P07478 24-247): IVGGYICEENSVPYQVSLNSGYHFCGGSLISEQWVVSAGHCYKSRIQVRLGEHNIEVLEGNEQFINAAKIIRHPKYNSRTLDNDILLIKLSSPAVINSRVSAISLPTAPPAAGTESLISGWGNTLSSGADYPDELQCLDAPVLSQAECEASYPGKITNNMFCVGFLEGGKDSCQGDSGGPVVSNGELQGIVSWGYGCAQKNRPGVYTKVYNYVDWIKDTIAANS
Human Hepsin, sequence (P05981 whole entry): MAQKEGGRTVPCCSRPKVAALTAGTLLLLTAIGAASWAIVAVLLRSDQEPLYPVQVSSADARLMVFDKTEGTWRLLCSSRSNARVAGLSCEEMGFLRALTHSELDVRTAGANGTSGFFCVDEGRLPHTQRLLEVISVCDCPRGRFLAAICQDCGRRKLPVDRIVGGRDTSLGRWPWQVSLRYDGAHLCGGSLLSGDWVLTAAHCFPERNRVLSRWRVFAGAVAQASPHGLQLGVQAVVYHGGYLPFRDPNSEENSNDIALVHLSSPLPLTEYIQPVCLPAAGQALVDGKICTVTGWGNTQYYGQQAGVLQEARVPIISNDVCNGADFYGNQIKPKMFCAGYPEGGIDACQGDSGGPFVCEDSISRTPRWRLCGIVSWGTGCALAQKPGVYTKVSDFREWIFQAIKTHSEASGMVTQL
Rat uPA, sequence (P29598 20-432): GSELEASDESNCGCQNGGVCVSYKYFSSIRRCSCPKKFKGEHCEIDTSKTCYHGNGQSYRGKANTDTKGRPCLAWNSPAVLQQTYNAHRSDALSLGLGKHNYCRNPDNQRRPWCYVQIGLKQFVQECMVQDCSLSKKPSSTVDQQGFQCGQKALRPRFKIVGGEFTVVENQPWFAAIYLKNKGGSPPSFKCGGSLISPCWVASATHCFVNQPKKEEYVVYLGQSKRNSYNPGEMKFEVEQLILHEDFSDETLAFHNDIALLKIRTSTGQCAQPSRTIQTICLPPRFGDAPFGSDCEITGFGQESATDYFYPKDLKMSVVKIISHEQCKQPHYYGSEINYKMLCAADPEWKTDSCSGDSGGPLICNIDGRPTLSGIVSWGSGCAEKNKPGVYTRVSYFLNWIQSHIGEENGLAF
Human Kallikrein-1, sequence (P06870 25-262): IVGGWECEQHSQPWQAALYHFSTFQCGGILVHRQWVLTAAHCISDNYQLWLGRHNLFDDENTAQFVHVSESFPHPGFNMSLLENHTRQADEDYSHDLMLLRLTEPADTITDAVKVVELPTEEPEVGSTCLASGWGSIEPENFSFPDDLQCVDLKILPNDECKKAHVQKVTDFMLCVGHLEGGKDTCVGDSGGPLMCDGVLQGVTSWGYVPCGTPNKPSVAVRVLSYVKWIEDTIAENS
T6 sequence (Q6ZMR5 whole entry): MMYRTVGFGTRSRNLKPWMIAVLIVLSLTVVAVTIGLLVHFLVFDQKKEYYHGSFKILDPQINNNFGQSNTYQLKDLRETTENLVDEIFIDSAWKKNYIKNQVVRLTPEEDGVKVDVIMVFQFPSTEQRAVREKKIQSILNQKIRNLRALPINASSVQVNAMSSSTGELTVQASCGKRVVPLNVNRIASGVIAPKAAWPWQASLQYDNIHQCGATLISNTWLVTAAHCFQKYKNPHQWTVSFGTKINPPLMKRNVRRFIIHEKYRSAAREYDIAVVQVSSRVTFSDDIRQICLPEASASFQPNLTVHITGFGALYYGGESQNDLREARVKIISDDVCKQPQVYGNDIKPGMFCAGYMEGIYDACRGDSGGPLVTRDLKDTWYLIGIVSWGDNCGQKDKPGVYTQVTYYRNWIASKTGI
Human Matriptase-2, sequence (Q8IU80 whole entry): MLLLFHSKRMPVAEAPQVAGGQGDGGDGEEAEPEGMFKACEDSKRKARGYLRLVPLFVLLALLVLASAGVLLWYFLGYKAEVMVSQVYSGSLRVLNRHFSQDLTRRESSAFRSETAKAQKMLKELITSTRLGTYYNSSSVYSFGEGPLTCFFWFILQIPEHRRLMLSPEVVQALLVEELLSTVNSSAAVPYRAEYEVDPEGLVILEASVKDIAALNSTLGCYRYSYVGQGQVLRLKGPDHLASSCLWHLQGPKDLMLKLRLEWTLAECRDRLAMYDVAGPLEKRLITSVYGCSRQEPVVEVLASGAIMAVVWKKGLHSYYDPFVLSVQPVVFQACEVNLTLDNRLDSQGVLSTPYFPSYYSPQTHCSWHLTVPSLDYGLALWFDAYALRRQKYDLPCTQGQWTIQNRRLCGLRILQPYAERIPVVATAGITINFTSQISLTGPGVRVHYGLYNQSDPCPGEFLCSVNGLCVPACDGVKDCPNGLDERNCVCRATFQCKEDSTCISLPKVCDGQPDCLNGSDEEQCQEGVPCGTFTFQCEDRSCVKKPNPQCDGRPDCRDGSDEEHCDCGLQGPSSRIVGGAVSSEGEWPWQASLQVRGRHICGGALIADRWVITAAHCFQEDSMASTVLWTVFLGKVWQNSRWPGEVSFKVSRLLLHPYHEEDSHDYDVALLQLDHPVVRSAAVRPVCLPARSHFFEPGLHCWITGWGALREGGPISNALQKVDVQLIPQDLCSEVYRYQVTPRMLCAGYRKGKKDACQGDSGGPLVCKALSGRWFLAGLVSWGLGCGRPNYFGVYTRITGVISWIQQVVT
Human HAT, sequence (O60235 whole entry): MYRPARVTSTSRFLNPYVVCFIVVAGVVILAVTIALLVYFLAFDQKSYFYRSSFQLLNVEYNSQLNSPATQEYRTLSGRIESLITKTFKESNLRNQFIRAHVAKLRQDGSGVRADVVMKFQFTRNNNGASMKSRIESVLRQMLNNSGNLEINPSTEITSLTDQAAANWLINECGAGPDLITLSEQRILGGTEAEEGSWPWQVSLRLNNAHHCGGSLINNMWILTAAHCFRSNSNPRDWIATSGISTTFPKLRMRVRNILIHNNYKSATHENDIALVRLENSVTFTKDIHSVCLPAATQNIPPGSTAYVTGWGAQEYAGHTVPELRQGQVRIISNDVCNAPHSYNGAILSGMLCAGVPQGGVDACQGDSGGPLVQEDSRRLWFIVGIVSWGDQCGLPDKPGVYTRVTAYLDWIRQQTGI
Human Prostasin, sequence (Q16651 33-343): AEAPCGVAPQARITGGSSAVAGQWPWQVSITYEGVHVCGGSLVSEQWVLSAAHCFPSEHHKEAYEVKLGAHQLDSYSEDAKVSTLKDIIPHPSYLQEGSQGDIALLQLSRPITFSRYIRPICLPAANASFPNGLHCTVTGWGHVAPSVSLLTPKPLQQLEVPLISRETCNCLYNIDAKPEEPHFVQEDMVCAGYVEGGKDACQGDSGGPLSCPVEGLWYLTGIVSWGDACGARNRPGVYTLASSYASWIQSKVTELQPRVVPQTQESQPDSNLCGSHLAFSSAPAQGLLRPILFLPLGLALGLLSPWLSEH

On to “4-[[4-[(Aminoiminomethyl)amino]benzoyl]oxy] benzeneacetic acid 2-(dimethylamino)-2-oxoethyl ester methanesulfonate [camostat, reference compound]”, for which the “antiviral activity / viral replication” value in experiment [1] is “inhibited”. Besides, the “inhibition of SARS-2-S-driven pseudotype entry” value in experiment [2] is “inactive”.

Take `CCOC(=O)N1CCN(C(=O)[C@H](Cc2cccc(C(=N)N)c2)NS(=O)(=O)c2c(C(C)C)cc(C(C)C)cc2C(C)C)CC1` [WX-UK1, N-α-(2,4,6-triisopropylphenylsulfonyl)-3-amidino-phenylalanine-4-ethoxycarbonylpiperazide]: the inhibition constant Ki in experiment [3] was 800 ± 100 nM; in [4], greater than 250000 nM; in experiment [5] it was 900 ± 100 nM; in [6], 710 ± 40 nM; in [7], 900 ± 100 nM; in [8] it was 14000 ± 400 nM. Also, the Ki in experiment [9] is 2600 ± 400 nM; in experiment [10] it was 2900 ± 40 nM; in [12] it was 13000 ± 2000 nM; in experiment [14] it was greater than 250000 nM; in experiment [15] it was 1400 ± 100 nM; in experiment [16], 6400 ± 300 nM. Moreover, the Ki was 19 ± 4 nM in [18]; 100 ± 10 nM in experiment [19]; 1500 ± 100 nM in [20]; 500 ± 100 nM in [21]; 2500 ± 200 nM in experiment [22]; greater than 250000 nM in experiment [24]. The Ki is 45000 ± 6000 nM in experiment [25]; 3900 ± 200 nM in experiment [26]; 7700 ± 500 nM in experiment [27]; 390 ± 10 nM in [28]; 3100 ± 400 nM in [29]; 2400 ± 300 nM in [30]. Moreover, the Ki in experiment [31] was 800 ± 100 nM; in [32], 2900 ± 100 nM; in experiment [33], 190 ± 10 nM; in [34], 4300 ± 500 nM; in [35] it was 400 ± 100 nM; in experiment [36], 26000 ± 1000 nM. Moreover, the values for the Ki in experiment [37], in experiment [38] and in experiment [39] were 28000 ± 5000 nM, 75 ± 3 nM and greater than 250000 nM, respectively. Also, the “antiviral activity / viral replication” value in experiment [1] is “potent antiviral activity; also recorded: inhibited”. Besides, the “infectious virus production, TCID50 assay in apical washes” value in experiment [1] is “dose-dependent reduction”. In [1] (lowest concentration 3.33 μg/ml, […]), the “reduction in viral load by TCID50” value came to 4 log. The “inhibition of SARS-2-S-driven pseudotype entry” value in experiment [11] and in [2] was “moderate inhibitory activity” in each case. Further, the “inhibition of VSV-G entry” value in experiment [13] is “moderately inhibited”. Moreover, the 50% inhibitory concentration (IC50) in experiment [17] was greater than 250000 nM; in experiment [23], 19000 ± 4000 nM.

On to `CCN(CC)CCCC(C)Nc1ccnc2cc(Cl)ccc12` (centres unmarked) [chloroquine], for which the “inhibition of S protein-driven entry” value in experiment [2] was “potently inhibited”.
